The values below come from patent publication US9776972B2, “Pyrazole derivatives as arginine methyltransferase inhibitors and uses thereof” (priority 2013, dated 2017).

The target in one assay is T1, human PRMT6 (Homo sapiens, UniProt Q96LA8).
T1 construct: Flag-PRMT6-His; made in house; host or cells: HEK 293F cells (BacMam baculovirus)
Nature of the assay: PRMT6 Biochemical Assay (3H-SAM Flashplate, peptide substrate). The source says:
S-adenosylmethionine (SAM), S-adenosylhomocysteine (SAH), bicine, Tween20, dimethylsulfoxide (DMSO), bovine skin gelatin (BSG), sodium butyrate and Tris(2-carboxyethyl)phosphine hydrochloride solution (TCEP) were purchased from Sigma-Aldrich at the highest level of purity possible. ^3H-SAM was purchase from American Radiolabeled Chemicals with a specific activity of 80 Ci/mmol. 384-well streptavidin Flashplates were purchased from PerkinElmer.
Peptide representative of human histone H4 residues 36-50 was synthesized with an N-terminal linker-affinity tag motif and a C-terminal amide cap by 21st Century Biochemicals.
The amplified gene was subcloned into pFastBacMam (Viva Biotech).
Recombinant baculovirus were generated according to Bac-to-Bac kit instructions (Life Technologies). […] Infections were carried out at 37° C. for 48 hours, harvested by centrifugation, and stored at −80° C. for purification.
Column was washed with 20 mM imidazole in the same buffer and Flag-PRMT6-His was eluted with 150 mM imidazole. […] Flag-PRMT6-His was eluted with 200 ug/ml FLAG peptide in the same buffer. Pooled fractions were dialysed in 20 mM Tris, 150 mM NaCl, 10% glycerol and 5 mM β-mercaptoethanol, pH 7.8.
General Procedure for PRMT6 Enzyme Assays on Peptide Substrates.
(§1) The assays were all performed in a buffer consisting of 20 mM Bicine (pH=7.6), 1 mM TCEP, 0.005% BSG, and 0.002% Tween 20, prepared on the day of use. […] DMSO (1 ul) was added to Columns 11, 12, 23, 24, rows A-H for the maximum signal control and 1 ul of SAH, a known product and inhibitor of PRMT6, was added to columns 11, 12, 23, 24, rows I-P for the minimum signal control. A cocktail (40 ul) containing the PRMT6 enzyme was added by Multidrop Combi (Thermo-Fisher). The compounds were allowed to incubate with PRMT6 for 30 min at room temperature, then a cocktail (10 ul) containing SAM and peptide was added to initiate the reaction (final volume=51 ul). […] The assays were stopped by the addition of non-radiolabeled SAM (10 ul) to a final concentration of 400 uM, which dilutes the ^3H-SAM to a level where its incorporation into the peptide substrate is no longer detectable. 50 ul of the reaction in the 384-well polypropylene plate was then transferred to a 384-well Flashplate and the biotinylated peptides were allowed to bind to the streptavidin surface for at least 1 hour before being washed once with 0.1% Tween20 in a Biotek ELx405 plate washer. The plates were then read in a PerkinElmer TopCount plate reader to measure the quantity of ^3H-labeled peptide bound to the Flashplate surface, measured as disintegrations per minute (dpm) or alternatively, referred to as counts per minute (cpm).
(§2) Where dpm=disintegrations per minute, cmpd=signal in assay well, and min and max are the respective minimum and maximum signal controls.
(§3) Where top and bottom are the normally allowed to float, but may be fixed at 100 or 0 respectively in a 3-parameter fit. The Hill Coefficient normally allowed to float but may also be fixed at 1 in a 3-parameter fit. Y is the % inhibition and X is the compound concentration.

Assay [1] concerns mono-methyl arginine in RKO cells. The experiment in a line: RKO Methylation Assay, In Cell Western (ICW) for mono-methyl arginine and DNA content. The following applies: Homo sapiens, RKO, 72 h, RKO cells, 72 hours, mono-methyl arginine, percent activation. It is filed as cell-based. The source says:
RKO adherent cells were purchased from ATCC (American Type Culture Collection), Manassas, Va., USA. DMEM/Glutamax medium, penicillin-streptomycin, heat inactivated fetal bovine serum, 0.05% trypsin and D-PBS were purchased from Life Technologies, Grand Island, N.Y., USA. Odyssey blocking buffer, 800CW goat anti-rabbit IgG (H+L) antibody, and Licor Odyssey infrared scanner were purchased from Licor Biosciences, Lincoln, Nebr., USA. Mono-methyl arginine antibody was purchased from Cell Signaling Technology, Danvers, Mass., USA. Methanol was purchased from VWR, Franklin, Mass., USA. 10% Tween 20 was purchased from KPL, Inc., Gaithersburg, Md., USA. DRAQ5 was purchased from Biostatus Limited, Leicestershire, UK.
RKO adherent cells were maintained in growth medium (DMEM/Glutamax medium supplemented with 10% v/v heat inactivated fetal bovine serum and 100 units/mL penicillin-streptomycin) and cultured at 37° C. under 5% CO2.
Cell Treatment, in Cell Western (ICW) for Detection of Mono-Methyl Arginine and DNA Content.
RKO cells were seeded in assay medium at a concentration of 20,000 cells per mL to a poly-D-lysine coated 384 well culture plate (BD Biosciences 356697) with 50 μL per well. Compound (100 nL) from a 96-well source plate was added directly to 384 well cell plate. Plates were incubated at 37° C., 5% CO2 for 72 hours. After three days of incubation, plates were brought to room temperature outside of the incubator for ten minutes and blotted on paper towels to remove cell media. 50 μL of ice cold 100% methanol was added directly to each well and incubated for 30 min at room temperature. After 30 min, plates were transferred to a Biotek EL406 plate washer and washed 2 times with 100 μL per well of wash buffer (1×PBS). Next 60 μL per well of Odyssey blocking buffer (Odyssey Buffer with 0.1% Tween 20 (v/v)) were added to each plate and incubated 1 hour at room temperature. Blocking buffer was removed and 20 μL per well of primary antibody was added (mono-methyl arginine diluted 1:200 in Odyssey buffer with 0.1% Tween 20 (v/v)) and plates were incubated overnight (16 hours) at 4° C. Plates were washed 5 times with 100 μL per well of wash buffer. Next 20 μL per well of secondary antibody was added (1:200 800CW goat anti-rabbit IgG (H+L) antibody, 1:1000 DRAQ5 (Biostatus limited) in Odyssey buffer with 0.1% Tween 20 (v/v)) and incubated for 1 hour at room temperature. The plates were washed 5 times with 100 μL per well wash buffer then 2 times with 100 μL per well of water. Plates were allowed to dry at room temperature then imaged on the Licor Odyssey machine which measures integrated intensity at 700 nm and 800 nm wavelengths. Both 700 and 800 channels were scanned.
First, the ratio for each well was determined by:
Each plate included fourteen control wells of DMSO only treatment (minimum activation) as well as fourteen control wells for maximum activation treated with 20 μM of a reference compound. The average of the ratio values for each control type was calculated and used to determine the percent activation for each test well in the plate. Reference compound was serially diluted three-fold in DMSO for a total of nine test concentrations, beginning at 20 μM. Percent activation was determined and EC30 curves were generated using triplicate wells per concentration of compound.

A further assay deals with T2, human PRMT1 (Homo sapiens, UniProt Q99873).
T2 construct: GST-tagged PRMT1; made in house; host or cells: High Five insect cells (baculovirus)
Nature of the assay: PRMT1 Biochemical Assay (3H-SAM Flashplate, peptide substrate). The following applies: single experiment or average of multiple experiments.
Excerpt: S-adenosylmethionine (SAM), S-adenosylhomocysteine (SAH), bicine, Tween20, dimethylsulfoxide (DMSO), bovine skin gelatin (BSG), and Tris(2-carboxyethyl)phosphine hydrochloride solution (TCEP) were purchased from Sigma-Aldrich at the highest level of purity possible. ^3H-SAM was purchase from American Radiolabeled Chemicals with a specific activity of 80 Ci/mmol. 384-well streptavidin Flashplates were purchased from PerkinElmer.
Recombinant baculovirus were generated according to Bac-to-Bac kit instructions (Life Technologies). […] Infections were carried out at 27° C. for 48 hours, harvested by centrifugation, and stored at −80° C. for purification.
GST-tagged PRMT1 was eluted with 50 mM Tris, 2 mM glutathione, pH 7.8, dialysed in buffer A and concentrated to 1 mg/mL.
General Procedure for PRMT1 Enzyme Assays on Peptide Substrates.
as §1, with “PRMT1,” for “PRMT6,”, “PRMT1” for “PRMT6”, “300” for “400”
as §2, §3

Where [2] appears, read: Biochemical IC50 PRMT6, single experiment or average of multiple experiments.
Setting [3] is: single experiment or average of multiple experiments, read-out: EC30 (In Cell Western data, Numerical).
The mark [4] stands for this setting: single experiment or average of multiple experiments, read-out: Biochemical IC50 PRMT6.
[5] abbreviates: class symbols, read-out: EC30 (In Cell Western data).

The structures appear in SMILES notation. Read-outs that look alike come from different tables or passages of the source.

The IC50 is the concentration that inhibits the measured activity by half. For orientation: EC30 means the concentration at which the effect reaches the 30% level.

T2 sequence (Q99873 with tags, fused parts or gaps): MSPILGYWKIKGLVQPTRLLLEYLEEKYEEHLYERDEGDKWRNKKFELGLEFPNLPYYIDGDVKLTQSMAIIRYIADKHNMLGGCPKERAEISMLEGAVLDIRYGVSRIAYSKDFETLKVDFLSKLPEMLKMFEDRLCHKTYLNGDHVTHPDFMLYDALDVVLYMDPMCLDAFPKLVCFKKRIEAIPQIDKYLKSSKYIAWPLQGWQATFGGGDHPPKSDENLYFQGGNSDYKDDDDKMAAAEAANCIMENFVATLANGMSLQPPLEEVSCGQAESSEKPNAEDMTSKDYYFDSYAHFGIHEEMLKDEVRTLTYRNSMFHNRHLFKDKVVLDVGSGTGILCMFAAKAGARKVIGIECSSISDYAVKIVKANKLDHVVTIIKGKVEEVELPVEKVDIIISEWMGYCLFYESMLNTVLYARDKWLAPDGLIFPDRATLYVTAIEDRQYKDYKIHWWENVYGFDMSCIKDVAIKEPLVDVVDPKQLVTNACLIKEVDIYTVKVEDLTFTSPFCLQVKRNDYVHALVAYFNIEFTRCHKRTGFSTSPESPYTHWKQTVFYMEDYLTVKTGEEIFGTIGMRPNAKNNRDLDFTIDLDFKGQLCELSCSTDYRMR
T1 sequence (Q96LA8 with tags, fused parts or gaps): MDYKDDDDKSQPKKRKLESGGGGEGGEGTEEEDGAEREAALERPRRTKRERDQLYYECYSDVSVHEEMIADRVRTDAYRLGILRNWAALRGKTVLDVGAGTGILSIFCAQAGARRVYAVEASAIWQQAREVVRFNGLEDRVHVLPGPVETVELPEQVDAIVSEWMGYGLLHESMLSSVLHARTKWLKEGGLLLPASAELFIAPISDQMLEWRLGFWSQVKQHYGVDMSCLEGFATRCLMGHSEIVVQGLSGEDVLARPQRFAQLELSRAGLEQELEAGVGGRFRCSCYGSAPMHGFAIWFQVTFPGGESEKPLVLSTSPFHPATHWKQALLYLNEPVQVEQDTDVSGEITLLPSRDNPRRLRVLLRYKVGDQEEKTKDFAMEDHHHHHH

For `CNCCN(C)Cc1c[nH]nc1-c1ccc(OC(C)C)cc1` [Compound 19, N^1-((3-(4-isopropoxyphenyl)-1H-pyrazol-4-yl)methyl)-N^1,N^2-dimethylethane-1,2-diamine], the half-inhibitory concentration (IC50) against human PRMT6 (setting [2]) was 0.0106 µM. The EC30 in assay [1] (setting [3]) turned out to be 0.067 µM.

Turning to `COCCn1cc(CN(C)CCN(C)C)c(-c2ccc(F)cc2)n1` [Compound 61], the 50% inhibitory concentration (IC50) against human PRMT6 (Biochemical IC50 PRMT6) and at human PRMT6 (setting [2]) was greater than 10 µM in each case.

At human PRMT6 (setting [2]), `COCCn1ncc(CN(C)CCN(C)C)c1-c1ccc(F)cc1` [Compound 64] showed an IC50 of 1.57 µM.

On to `CN(CCN)Cc1cn(CC(O)CO)nc1-c1ccc(F)cc1` (stereo not drawn) [Compound 76], for which the IC50 stood at 2.73 µM at human PRMT6 (setting [2]) and 6.39 µM at human PRMT1.

On to `CN(CCN)Cc1cn(CC2COC2)nc1-c1ccc(F)cc1` [Compound 79], for which the IC50 at human PRMT6 (Biochemical IC50 PRMT6) and on human PRMT6 (setting [2]) was greater than 10 µM each time. Further, in assay [1] (setting [3]), the EC30 is greater than 20 µM.

In the case of `CN(CCN)Cc1cnn(CC2COC2)c1-c1ccc(F)cc1` [Compound 80], the IC50 on human PRMT6 (Biochemical IC50 PRMT6) and at human PRMT6 (setting [2]) was greater than 10 µM in each case. Also, the EC30 in assay [1] (setting [3]) was greater than 20 µM.

For `CN(CCN)Cc1c(-c2ccc(C#N)cc2)cnn1C` [Compound 84], the IC50 on human PRMT6 (Biochemical IC50 PRMT6) and against human PRMT6 (setting [2]) was greater than 10 µM in each case.

In the case of `CN(CCN)Cc1cn(CC2CCOCC2)nc1-c1ccc(F)cc1` [Compound 128], the IC50 stood at 2.37 µM against human PRMT6 (setting [2]) and 6.5 µM against human PRMT1.

As for `CN(CCN1CCCC1)Cc1c[nH]nc1-c1ccc(C#N)cc1` [Compound 139], the half-inhibitory concentration (IC50) against human PRMT6 (Biochemical IC50 PRMT6) and at human PRMT6 (setting [2]) was greater than 10 µM each time. Moreover, the EC30 in assay [1] (setting [3]) was greater than 20 µM.

Regarding `CN(CCN)Cc1c[nH]nc1-c1ccc(OCCCN2CCOCC2)cc1` [Compound 186], the 50% inhibitory concentration (IC50) against human PRMT6 (setting [2]) worked out at 0.0133 µM. Also, in assay [1] (setting [3]), the EC30 was 12.8 µM.

For the compound `CN(CCN)Cc1c[nH]nc1-c1ccc(N2CCN(C(=O)Cc3ccccc3)CC2)cc1` [Compound 190], the IC50 on human PRMT6 (setting [4]) stood at 0.0201 µM. Further, in assay [1] (setting [3]), the EC30 stood at 8.39 µM.

Consider `CN(CCN)Cc1c[nH]nc1-c1ccc(Oc2ccccc2)cc1` [Compound 200], for which the concentration for an effect of 30% (EC30) in assay [1] (setting [3]) was 0.596 µM.

On human PRMT6 (setting [2]), `CNCCN(C)Cc1cn[nH]c1-c1ccc(OC(C)C)c(Cl)c1` [Compound 201] came in with an IC50 of 0.00924 µM. The concentration for an effect of 30% (EC30) in assay [1] (setting [3]) was found to be 0.255 µM.

`CNCCN(C)Cc1cnn(C)c1-c1ccc(OC(C)C)c(Cl)c1` [Compound 220, N^1-((5-(3-chloro-4-isopropoxyphenyl)-1-methyl-1H-pyrazol-4-yl)methyl)-N^1,N^2-dimethylethane-1,2-diamine]: the concentration for half-maximal inhibition (IC50) on human PRMT6 (setting [4]) amounted to 0.0231 µM. The 30% effect concentration (EC30) in assay [1] (setting [3]) is 0.211 µM.

`COCCn1cnc(-c2ccc(C#N)cc2)c1CN(C)CCN` [Compound 223]: the IC50 at human PRMT6 (Biochemical IC50 PRMT6) and against human PRMT6 (setting [2]) was greater than 10 µM in each case. The EC30 in assay [1] (setting [3]) is greater than 20 µM.

Take `CNCCN(C)Cc1c[nH]nc1-c1ccc(Oc2ccccc2)c(C#N)c1` [Compound 234]: the IC50 against human PRMT6 (setting [2]) worked out at 0.00474 µM; against human PRMT1 it was 0.00775 µM.

The compound `CNCCN(C)Cc1c[nH]nc1-c1ccc(Oc2cccc(C(=O)N(C)C)c2)cc1` [Compound 264] gave an IC50 against human PRMT6 (setting [2]) of 0.00318 µM. In addition, the concentration for an effect of 30% (EC30) in assay [1] (setting [3]) was determined as 3.52 µM.

`CNCCN(C)Cc1n[nH]cc1-c1ccc(Oc2cccc(C(=O)N(C)C)c2)cc1` [Compound 269]: the IC50 at human PRMT6 (setting [2]) was determined as 0.00273 µM. In assay [1] (setting [3]), the EC30 worked out at 14.9 µM.

Compound `CNCCN(C)Cc1n[nH]cc1-c1ccc(Oc2ccccc2C(=O)NC)cc1` [Compound 278] showed an IC50 against human PRMT6 (setting [2]) of 0.00517 µM. In addition, the EC30 in assay [1] (setting [3]) amounted to 8.23 µM.

Consider `CCC(CO)Oc1ccc(-c2n[nH]cc2CN(C)CCNC)cc1` (stereo not drawn) [Compound 287], for which the results for the half-maximal inhibitory concentration (IC50) against human PRMT6 (Biochemical IC50 PRMT6) and at human PRMT6 (setting [4]) were less than 0.1 µM and 0.0248 µM, respectively. The values for the concentration for an effect of 30% (EC30) in assay [1] (setting [5]) and in assay [1] (setting [3]) were less than 3 µM and 0.202 µM, respectively.

`CCOc1ccc(-c2n[nH]cc2CN(C)CCNC)cc1` [Compound 294]: the IC50 on human PRMT6 (Biochemical IC50 PRMT6) was less than 0.1 µM; against human PRMT6 (setting [2]), 0.0246 µM. Also, the EC30 is less than 3 µM in assay [1] (setting [5]) and 0.224 µM in assay [1] (setting [3]).
